Several values for one entry are separate records, joined by “and”; a condition that tells them apart may be missing. Equal values may be shown once.
Test system: cells in the liver
Assay: In vivo screening of LNPs comprising fLuciferase mRNA, bioluminescent imaging (BLI)
Parameters: species or system BALB/C mice
Settings: 0.5 mg/kg fLuciferase mRNA intravenously, BLI at 4 hr
Protocol: To formulate the LNPs, various percentages of one of COMPOUNDS 3, 6, or 12, the phospholipid (DOPE or DOPC), the structural lipid cholesterol (Chol) and 1,2-dimyristoyl-sn-glycerol methoxypolyethylene glycol (DMG-PEG2000; Avanti Polar Lipids, Alabaster, Alabama, USA) were combined to prepare LNP compositions.
Individual 25 mg/ml stock solutions were prepared by solubilizing the lipids in 200-proof HPLC-grade ethanol and stock solutions were stored at −80° C. until formulated. At the time of formulation, the lipid stock solutions were briefly allowed to equilibrate to room temp and then placed on a hot plate maintained at a temperature range of 50-55° C. Subsequently, the hot lipid stock solutions were combined to yield desired final mole percentages.
A 1 mg/ml solution of the 5′-CleanCap-fLuciferase mRNA (TriLink Biotech) to be incorporated into the LNPs was added to 150 mM sodium acetate buffer (pH 5.2) to form a stock solution and kept on ice. The lipid phase was mixed with the aqueous mRNA phase inside a microfluidic chip using a NanoAssemblr® instrument (Precision Nanosystems, Vancouver, BC, Canada) according to the manufacturer's instructions to form LNP compositions comprising encapsulated mRNAs.
The resultant mRNA LNP compositions were then transferred to a Repligen Float-A-Lyzer dialysis device—having a molecular weight cut off (MWCO) of 8-10 kDa (Spectrum Chemical Mfg. Corp, CA, USA) and processed by dialysis against phosphate buffered saline (PBS) (dialysate:dialysis buffer volume at least 1:200 v/v), pH 7.4 overnight at 4° C. (or alternatively room temperature for at least 4 hours), to remove the 25% ethanol and achieve a complete buffer exchange. […]
The location and extent of luciferase expression in treated and control mice were determined at 4 hr by bioluminescent imaging (BLI) of anesthetized mice using an IVIS Lumina in vivo imaging system (Perkin Elmer) according to the manufacturer's instructions. […]

`CCCCCCCCCCC(CN(CCCN(C)CCCN(CC(CCCCCCCCCC)SSCCO)CC(CCCCCCCCCC)SSCCO)CC(CCCCCCCCCC)SSCCO)SSCCO` (stereo not drawn) [Compound 3] was tested, and the “Mean Liver Luciferase Flux” value (LNP with 33.5% moles compound, 32% DOPE, 33.5% Chol, 1% PEG-DMG, lipid:RNA 40 w/w) was 2.72E+08 p/s, the “Mean Liver Luciferase Flux” value (LNP with 43.3% moles compound, 12% DOPC, 43.3% Chol, 1.5% PEG-DMG, lipid:RNA 100 w/w) was 6.49E+10 p/s and the “Mean Liver Luciferase Flux” value (LNP with 54% moles compound, 10% DOPC, 35% Chol, 1% PEG-DMG, lipid:RNA 100 w/w, 0.5 mg/kg) was 1.94E+11 p/s and 1.16E+11 p/s.

— patent publication US20260042732A1, “Sulfur-containing Compounds and Compositions Thereof for Delivery of Nucleic Acids” (Poseida Therapeutics, Inc., priority 2022, published 2026)
